# Experimental data reported in US7659299B2, “Compounds inhibiting the binding of sap for treating osteoarthritis” (Pentraxin Therapeutics Limited, priority 2003, dated 2010).
# Assays:
# SAP [1] = target: T1, SAP (Homo sapiens, UniProt P02743); experiment: Lead identification: inhibition of ligand binding by SAP (SAP binding to amyloid fibrils, high throughput screening); details: compared with the original hit Ro-15-3479
# Excerpt: The compounds tested in the experiment shown here were a family of molecules developed as inhibitors of SAP binding to amyloid fibrils, following identification of an initial lead molecule during high throughput screening of a large compound library according to U.S. Pat. No. 6,126,918. […] A chemistry programme then produced, (R)-1-[6-(R)-2-Carboxy-pyrrolidin-1-yl]-6-oxo-hexanoyl]pyrrolidine-2-carboxylic acid (Ro-63-8695) (Example 8b of EP-A-915088) and a family of related molecules, that were tested here.
# SAP [2] = target: T1, SAP; experiment: Inhibition of binding of 125I radiolabelled SAP to native long chromatin immobilized in microtitre plates; parameters: 5 μl of radiolabelled SAP in TN; from tissue; details: read-out: Percent inhibition of binding of radiolabelled SAP to immobilized native long chromatin
# SAP [3] = target: T1, SAP; experiment: Inhibition of binding of 125I radiolabelled SAP to influenza virus immobilized in microtitre plates; parameters: 5 μl of radiolabelled SAP in TN; from tissue; details: read-out: Percent inhibition of binding of radiolabelled SAP to immobilized influenza virus
# Method: A concentrated suspension of purified influenza virus A/Shanghai/24/90 at 10 mg protein per ml in PBS was diluted 1:50 in PBS and then dispensed to polystyrene microtitre plates at 50 μl volumes per well, and left overnight at 4° C. All wells were then emptied before blocking by addition to each well of 200 μl of 2% w/v BSA in PBS and incubation at room temperature for 1 h. All wells were then washed three times with 200 μl volumes of PBS containing 0.05% v/v Tween 20, prior to equilibration for 2 min with 0.01M Tris buffered 0.14M NaCl/0.002M CaCl2 at pH 8.0 (TC buffer), containing 4% w/v BSA and 0.05% v/v Tween 20 (TCBT buffer). The wells were then emptied before adding to each one the following reagents. […] For background, non-specific, non calcium dependent, binding in the presence of EDTA: 5 μl radiolabelled SAP in TN and 45 μl 0.01M Tris buffered 0.14M NaCl at pH 8.0 containing 11.1 mM EDTA, 4.4% w/v BSA and 0.06% w/v Tween 20 (TEBT buffer) to provide final concentrations of EDTA, 10 mM; BSA, 4%; Tween 20, 0.05%. […] All wells were then incubated at room temperature for 2 h before being washed three times with 200 μl volumes of TCBT, allowed to dry for 1 h at room temperature, and bound radiolabelled SAP was then counted. The compounds tested in the experiment shown here were the same as those specified in Example B above.
# The capacity of the compounds tested to inhibit binding of SAP to the immobilised influenza virus is expressed as the percentage by which SAP binding was reduced compared to binding in the absence of any inhibitor (Table 3).
# SAP [4] = target: T1, SAP; experiment: Inhibition of binding of 125I radiolabelled SAP to Neisseria meningitidis immobilized in microtitre plates; parameters: 5 μl of radiolabelled SAP in TN; from tissue; details: read-out: Percent inhibition of binding of radiolabelled SAP to immobilized Neisseria meningitidis
# Method: A suspension of heat killed Neisseria meningitidis at 1×10^8 organisms per ml in PBS was dispensed to polystyrene microtitre plates at 50 μl volumes per well, and left overnight at 4° C. All wells were then washed three times with 200 μl volumes of PBS containing 0.05% v/v Tween 20, prior to equilibration for 2 min with 0.01M Tris buffered 0.14M NaCl/0.002M CaCl2 at pH 8.0 (TC buffer), containing 4% w/v BSA and 0.05%/v Tween 20 (TCBT buffer). The wells were then emptied before adding to each one the following reagents. […] For background, non-specific, non calcium dependent, binding in the presence of EDTA: 5 μl radiolabelled SAP in TN and 45 μl 0.01M Tris buffered 0.14M NaCl at pH 8.0 containing 11.1 mM EDTA, 4.4% w/v BSA and 0.06% w/v Tween 20 (TEBT buffer) to provide final concentrations of EDTA, 10 mM; BSA, 4%; Tween 20, 0.05%. […] All wells were then incubated at room temperature for 2 h before being washed three times with 200 μl volumes of TCBT, allowed to dry for 1 h at room temperature, and bound radiolabelled SAP was then counted.
# The capacity of the compounds tested to inhibit binding of SAP to meningococci is expressed as the percentage by which SAP binding was reduced compared to binding in the absence of any inhibitor (Table 1).
# T1 sequence (P02743 20-223): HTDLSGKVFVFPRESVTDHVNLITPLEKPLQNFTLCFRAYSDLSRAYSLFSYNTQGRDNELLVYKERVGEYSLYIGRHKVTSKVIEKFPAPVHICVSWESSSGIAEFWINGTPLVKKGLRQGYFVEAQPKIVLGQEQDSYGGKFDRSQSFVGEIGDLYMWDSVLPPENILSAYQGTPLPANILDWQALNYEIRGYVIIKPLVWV
structure (smiles),measurement,setting,value
"C[C@H](CSSC[C@@H](C)C(=O)N1CCC[C@@H]1C(=O)O)C(=O)N1CCC[C@@H]1C(=O)O [Ro-63-3300, (R)-1-[(S)-3-[(S)-3-[(R)-2-carboxy-pyrrolidin-1-yl]-2-methyl-3-oxo-propyldisulfanyl]-2-methyl-propionyl]-pyrrolidine-2-carboxylic acid]","Inhibition of ligand binding by SAP, in words",SAP [1],much more potent
same,inhibition at 0.2 µM,SAP [2]; compound 200 nM,3%
same,inhibition at 2 µM,SAP [2]; compound 2 μM,34%
same,inhibition at 20 µM,SAP [2]; compound 20 μM,69%
same,inhibition at 200 µM,SAP [2]; compound 200 μM,88%
same,inhibition at 2000 µM,SAP [2]; compound 2 mM,99%
same,inhibition at 0.2 µM,SAP [3]; compound 200 nM,47%
same,inhibition at 2 µM,SAP [3]; compound 2 μM,78%
same,inhibition at 20 µM,SAP [3]; compound 20 μM,90%
same,inhibition at 200 µM,SAP [3]; compound 200 μM,91%
same,inhibition at 2000 µM,SAP [3]; compound 2 mM,91%
same,inhibition at 0.2 µM,SAP [4]; compound 200 nM,28%
same,inhibition at 2 µM,SAP [4]; compound 2 μM,68%
same,inhibition at 20 µM,SAP [4]; compound 20 μM,73%
same,inhibition at 2000 µM,SAP [4]; compound 2 mM,100%
